Measured values reported in ChEMBL document CHEMBL5500358, “Identification of CH2-linked quinolone-aminopyrimidine hybrids as potent anti-MRSA agents: Low resistance potential and lack of cross-resistance with fluoroquinolone antibiotics” (Eur J Med Chem, 2024).
In brackets after ≈: the same amount, converted by molar mass.

Legend:
[1] = Metabolic stability in human liver microsomes assessed as liver intrinsic clearance at 1 uM by LC-MS/MS analysis; assay type: ADME, Microsome; settings: read-out: CLH
[2] = Acute toxicity in ICR mouse assessed as lung damage at 400 to 2000 mg/kg, po administered as single dose via oral gavage and measured on day 9; assay type: organism-based; settings: in vivo, 216 h, dose 400-2000 mg/kg, time 9 day
[3] = Metabolic stability in rat liver microsomes assessed as liver intrinsic clearance at 1 uM by LC-MS/MS analysis; assay type: ADME, Microsome; settings: read-out: CLH
[4] = Acute toxicity in female ICR mouse assessed as effect on body weight at 400 to 2000 mg/kg, po administered as single dose via oral gavage and measured for 8 days; assay type: organism-based; settings: in vivo, 192 h, dose 400-2000 mg/kg, time 8 day
[5] = Metabolic stability in human liver microsomes assessed as microsomal intrinsic clearance at 1 uM by LC-MS/MS analysis; assay type: ADME, Microsome; settings: read-out: CLH
[6] = Metabolic stability in rat liver microsomes assessed as microsomal intrinsic clearance at 1 uM by LC-MS/MS analysis; assay type: ADME, Microsome; settings: read-out: CLH
[7] = Metabolic stability in rat liver microsomes assessed as elimination half life at 1 uM by LC-MS/MS analysis; assay type: ADME, Microsome; settings: read-out: beta t1/2
[8] = Acute toxicity in ICR mouse assessed as spleen damage at 400 to 2000 mg/kg, po administered as single dose via oral gavage and measured on day 9; assay type: organism-based; settings: in vivo, 216 h, dose 400-2000 mg/kg, time 9 day
HEK293 = test: Cytotoxicity against HEK293 cells assessed as reduction in cell viability at 100 uM incubated for 24 hrs by CCK-8 assay; assay type: toxicity, cell-based; settings: human, hek293, 24 h
[9] = Clearance in male Sprague-Dawley rat at 10 mg/kg, iv administered as single dose and measured upto 24 hrs by LC-MS/MS analysis; assay type: ADME, organism-based; settings: in vivo
[10] = Acute toxicity in ICR mouse assessed as heart damage at 400 to 2000 mg/kg, po administered as single dose via oral gavage and measured on day 9; assay type: organism-based; settings: in vivo, 216 h, dose 400-2000 mg/kg, time 9 day
[11] = target: Voltage-gated inwardly rectifying potassium channel KCNH2 (Homo sapiens, UniProt Q12809); test: Inhibition of hERG expressed in CHO cells at -80 mV holding potential by manual patch clamp method; assay type: toxicity, cell-based
Sequence of Voltage-gated inwardly rectifying potassium channel KCNH2 (Q12809 whole entry): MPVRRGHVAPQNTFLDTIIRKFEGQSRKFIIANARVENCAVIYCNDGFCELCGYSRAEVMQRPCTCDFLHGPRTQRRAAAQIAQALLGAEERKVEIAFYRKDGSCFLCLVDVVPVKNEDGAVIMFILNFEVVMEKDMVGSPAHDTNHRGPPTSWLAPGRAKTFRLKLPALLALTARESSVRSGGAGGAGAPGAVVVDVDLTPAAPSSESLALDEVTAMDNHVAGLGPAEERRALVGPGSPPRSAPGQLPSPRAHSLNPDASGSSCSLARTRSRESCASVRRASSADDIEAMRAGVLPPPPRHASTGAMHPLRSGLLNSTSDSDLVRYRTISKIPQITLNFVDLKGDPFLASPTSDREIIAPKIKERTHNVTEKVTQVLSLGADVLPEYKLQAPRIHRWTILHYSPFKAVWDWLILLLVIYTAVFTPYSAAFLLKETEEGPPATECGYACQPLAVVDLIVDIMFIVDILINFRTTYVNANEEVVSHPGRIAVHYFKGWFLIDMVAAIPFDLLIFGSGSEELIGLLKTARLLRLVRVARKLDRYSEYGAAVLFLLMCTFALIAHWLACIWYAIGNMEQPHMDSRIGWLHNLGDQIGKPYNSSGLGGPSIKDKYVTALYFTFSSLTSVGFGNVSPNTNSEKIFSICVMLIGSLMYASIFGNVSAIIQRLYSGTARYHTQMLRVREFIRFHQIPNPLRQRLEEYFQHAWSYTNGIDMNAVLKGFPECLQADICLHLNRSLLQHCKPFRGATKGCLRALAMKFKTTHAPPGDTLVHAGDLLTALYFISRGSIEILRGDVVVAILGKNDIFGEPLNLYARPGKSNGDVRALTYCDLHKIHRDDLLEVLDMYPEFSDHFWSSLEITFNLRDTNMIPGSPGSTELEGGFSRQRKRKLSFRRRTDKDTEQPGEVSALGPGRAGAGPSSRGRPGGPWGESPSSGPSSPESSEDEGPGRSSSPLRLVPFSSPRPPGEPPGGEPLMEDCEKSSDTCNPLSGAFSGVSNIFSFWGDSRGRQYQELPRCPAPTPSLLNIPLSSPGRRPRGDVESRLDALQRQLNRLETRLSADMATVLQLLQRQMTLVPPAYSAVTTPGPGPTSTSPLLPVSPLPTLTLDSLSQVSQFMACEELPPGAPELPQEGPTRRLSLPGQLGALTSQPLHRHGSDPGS

[12] = Metabolic stability in human liver microsomes assessed as compound remaining at 1 uM measured after 60 mins by LC-MS/MS analysis; assay type: ADME, Microsome; settings: read-out: Stability
[13] = Acute toxicity in ICR mouse assessed as effect on food intake at 400 to 2000 mg/kg, po administered as single dose via oral gavage and measured for 8 days; assay type: organism-based; settings: in vivo, 192 h, dose 400-2000 mg/kg, time 8 day
[14] = Metabolic stability in human liver microsomes assessed as elimination half life at 1 uM by LC-MS/MS analysis; assay type: ADME, Microsome; settings: read-out: beta t1/2
[15] = MRT (0 to infinity) in male Sprague-Dawley rat at 10 mg/kg, iv administered as single dose and measured upto 24 hrs by LC-MS/MS analysis; assay type: ADME, organism-based; settings: in vivo
[16] = AUC (0 to t) in male Sprague-Dawley rat at 10 mg/kg, iv administered as single dose and measured upto 24 hrs by LC-MS/MS analysis; assay type: ADME, organism-based; settings: in vivo
[17] = Cmax in male Sprague-Dawley rat at 20 mg/kg, po administered as single dose and measured upto 24 hrs by LC-MS/MS analysis; assay type: ADME, organism-based; settings: in vivo
[18] = Half life in male Sprague-Dawley rat at 10 mg/kg, iv administered as single dose and measured upto 24 hrs by LC-MS/MS analysis; assay type: ADME, organism-based; settings: in vivo
Staphylococcus aureus [19] = test: Antibacterial activity against fluoroquinolone-sensitive methicillin resistant Staphylococcus aureus ATCC 33591 incubated for 16 to 18 hrs by absorbance based analysis; assay type: functional; settings: time 16-18 hrs
[20] = Acute toxicity in ICR mouse assessed as liver damage at 400 to 2000 mg/kg, po administered as single dose via oral gavage and measured on day 9; assay type: organism-based; settings: in vivo, 216 h, dose 400-2000 mg/kg, time 9 day
[21] = Metabolic stability in human liver microsomes assessed as drug elimination rate constant at 1 uM by LC-MS/MS analysis; assay type: ADME, Microsome
[22] = Acute toxicity in ICR mouse assessed as abnormal behaviors at 400 to 2000 mg/kg, po administered as single dose via oral gavage and measured for 8 days; assay type: organism-based; settings: in vivo, 192 h, dose 400-2000 mg/kg, time 8 day
[23] = Metabolic stability in rat liver microsomes assessed as compound remaining at 1 uM measured after 60 mins by LC-MS/MS analysis; assay type: ADME, Microsome; settings: read-out: Stability
[24] = Acute toxicity in male ICR mouse assessed as effect on body weight at 400 to 2000 mg/kg, po administered as single dose via oral gavage and measured for 8 days; assay type: organism-based; settings: in vivo, 192 h, dose 400-2000 mg/kg, time 8 day
[25] = Acute toxicity in ICR mouse assessed as animal death at 400 to 2000 mg/kg, po administered as single dose via oral gavage and measured for 8 days; assay type: organism-based; settings: in vivo, 192 h, dose 400-2000 mg/kg, time 8 day
[26] = AUC (0 to infinity) in male Sprague-Dawley rat at 10 mg/kg, iv administered as single dose and measured upto 24 hrs by LC-MS/MS analysis; assay type: ADME, organism-based; settings: in vivo
[27] = Tmax in male Sprague-Dawley rat at 20 mg/kg, po administered as single dose and measured upto 24 hrs by LC-MS/MS analysis; assay type: ADME, organism-based; settings: in vivo
A549 = test: Cytotoxicity against human A549 cells assessed as reduction in cell viability at 100 uM incubated for 24 hrs by CCK-8 assay; assay type: toxicity, cell-based; settings: a549, 24 h
[28] = MRT (0 to t) in male Sprague-Dawley rat at 10 mg/kg, iv administered as single dose and measured upto 24 hrs by LC-MS/MS analysis; assay type: ADME, organism-based; settings: in vivo
[29] = Initial drug concentration in male Sprague-Dawley rat at 10 mg/kg, iv administered as single dose and measured upto 24 hrs by LC-MS/MS analysis; assay type: ADME, organism-based; settings: in vivo
Staphylococcus aureus [30] = test: Antibacterial activity against fluoroquinolone-sensitive methicillin resistant Staphylococcus aureus USA500 incubated for 16 to 18 hrs by absorbance based analysis; assay type: functional; settings: time 16-18 hrs
[31] = MRT (0 to infinity) in male Sprague-Dawley rat at 20 mg/kg, po administered as single dose and measured upto 24 hrs by LC-MS/MS analysis; assay type: ADME, organism-based; settings: in vivo
[32] = Metabolic stability in rat liver microsomes assessed as drug elimination rate constant at 1 uM by LC-MS/MS analysis; assay type: ADME, Microsome
[33] = Oral bioavailability in male Sprague-Dawley rat at 20 mg/kg administered as single dose and measured upto 24 hrs by LC-MS/MS analysis; assay type: ADME, organism-based; settings: in vivo
Staphylococcus aureus [34] = test: Antibacterial activity against methicillin resistant Staphylococcus aureus ATCC 33591 measured after 15 passages; assay type: functional
[35] = Acute toxicity in ICR mouse assessed as kidney damage at 400 to 2000 mg/kg, po administered as single dose via oral gavage and measured on day 9; assay type: organism-based; settings: in vivo, 216 h, dose 400-2000 mg/kg, time 9 day
Staphylococcus aureus [36] = test: Antibacterial activity against fluoroquinolone/methicillin resistant Staphylococcus aureus Mu50 incubated for 16 to 18 hrs by absorbance based analysis; assay type: functional; settings: time 16-18 hrs
[37] = AUC (0 to infinity) in male Sprague-Dawley rat at 20 mg/kg, po administered as single dose and measured upto 24 hrs by LC-MS/MS analysis; assay type: ADME, organism-based; settings: in vivo
[38] = Acute toxicity in ICR mouse assessed as brain damage at 400 to 2000 mg/kg, po administered as single dose via oral gavage and measured on day 9; assay type: organism-based; settings: in vivo, 216 h, dose 400-2000 mg/kg, time 9 day
[39] = MRT (0 to t) in male Sprague-Dawley rat at 20 mg/kg, po administered as single dose and measured upto 24 hrs by LC-MS/MS analysis; assay type: ADME, organism-based; settings: in vivo
[40] = Half life in male Sprague-Dawley rat at 20 mg/kg, po administered as single dose and measured upto 24 hrs by LC-MS/MS analysis; assay type: ADME, organism-based; settings: in vivo
Escherichia coli = test: Antibacterial activity against Escherichia coli ATCC 25922 incubated for 16 to 18 hrs by absorbance based analysis; assay type: functional; settings: time 16-18 hrs
[41] = AUC (0 to t) in male Sprague-Dawley rat at 20 mg/kg, po administered as single dose and measured upto 24 hrs by LC-MS/MS analysis; assay type: ADME, organism-based; settings: in vivo

O=C(O)c1cn(C2CC2)c2cc(Nc3nccc(Cc4ccc(F)cc4F)n3)ccc2c1=O
CLint scaled at 1 µM [1]: 29.1 mL/min/kg | Activity [2]: Non-Toxic | CLint scaled at 1 µM [3]: 60.9 mL/min/kg | Activity [4]: Non-Toxic | microsomal CLint at 1 µM [5]: 30.8 µL/min/mg | microsomal CLint at 1 µM [6]: 33.8 µL/min/mg | half-life at 1 µM [7]: 0.683 h | Activity [8]: Non-Toxic | Activity (HEK293): Non-Toxic | clearance [9]: 18.5 mL/min/kg | Activity [10]: Non-Toxic | IC50 [11]: > 40 µM | remaining at 1 h, 1 µM [12]: 40.9% | Activity [13]: Non-Toxic | half-life at 1 µM [14]: 0.75 h | MRT inf [15]: 1.2 h | AUC(0-t) at 24 h [16]: 9060 ng·h/mL | Cmax [17]: 31 ng/mL | half-life [18]: 4.23 h | MIC (Staphylococcus aureus [19]): 0.25 µg/mL (≈ 0.558 µM) | Activity [20]: Non-Toxic | k el at 1 µM [21]: 0.00025 s⁻¹ | Activity [22]: Non-Toxic | remaining at 1 h, 1 µM [23]: 35.7% | Activity [24]: Non-Toxic | Activity [25]: Non-Toxic | AUC(0-inf) [26]: 9100 ng·h/mL | Tmax [27]: 2.67 h | Activity (A549): Non-Toxic | MRT last at 24 h [28]: 1.01 h | C0 at 24 h [29]: 11800 ng/mL | MIC (Staphylococcus aureus [30]): 0.39 µg/mL (≈ 0.87 µM) | MRT inf [31]: 4.2 h | k el at 1 µM [32]: 0.000283 s⁻¹ | bioavailability [33]: 0.9% | MIC (Staphylococcus aureus [34]): 0.25 µg/mL (≈ 0.558 µM) | Activity [35]: Non-Toxic | MIC (Staphylococcus aureus [36]): 0.39 µg/mL (≈ 0.87 µM) | AUC(0-inf) [37]: 171 ng·h/mL | Activity [38]: Non-Toxic | MRT last at 24 h [39]: 3.51 h | half-life [40]: 2.16 h | MIC (Escherichia coli): > 64 µg/mL | AUC(0-t) at 24 h [41]: 162 ng·h/mL
